Reference: patent US8357694B2, “Substituted 5,6-dihydro-6-phenylbenzo[F]isoquinolin-2-amine compounds” (ArQule, Inc., priority 2008, dated 2013)

What was measured:
Format in all cases: cell-based
[1] = test system: KATO III; assay: MTS assay, KATO III
Description: (§1) Cells were maintained at 37° C., 5% CO2 in DMEM media supplemented with 1% fetal bovine serum, penicillin/streptomycin and fungizone (Invitrogen). Cells were seeded into 96-well tissue culture plates at 3000 per well and cultured at 37° C. for 18 hours. Test compounds were dissolved and diluted to 300× in DMSO then diluted 1:40 in DMEM.

[2] = test system: DLD-1; assay: MTS cell kill, DLD-1
Description: as §1

[3] = test system: MDA-MB-231; assay: MTS cell kill, MDA-MB-231
Description: as §1

[4] = test system: NCI-H1299; assay: MTS cell kill, NCI-H1299
Description: as §1

[5] = test system: PACA-2; assay: MTS cell kill, PACA-2
Description: as §1

[6] = test system: PC-3; assay: MTS cell kill, PC-3
Description: as §1
Further: test concentration or dose not given here.

Row | Compound | MTS cell kill data (% inhibition) KATO III [1] | MTS cell kill data (% inhibition) DLD-1 [2] | MTS cell kill data (% inhibition) MDA-MB-231 [3] | MTS cell kill data (% inhibition) NCI-H1299 [4] | MTS cell kill data (% inhibition) PACA-2 [5] | MTS cell kill data (% inhibition) PC-3 [6]
1 | Cc1ccc(S(=O)(=O)Nc2ccc(C3Cc4cnc(NCCCCN(C)C)nc4-c4ccccc43)cc2)cc1 (stereo not shown) [Example 420, N-[4-(2-{[4-(dimethylamino)butyl]amino}-5,6-dihydrobenzo[h]quinazolin-6-yl)phenyl]-4-methylbenzenesulfonamide] | A (A = 80-100% inhibition) | A (A = 80-100% inhibition) | A (A = 80-100% inhibition) | A (A = 80-100% inhibition) | A (A = 80-100% inhibition) | A (A = 80-100% inhibition)
2 | CN(C)CCCCNc1ncc2c(n1)-c1ccccc1C(c1ccc(NS(=O)(=O)c3ccc(-c4ccccc4)cc3)cc1)C2 (stereo not shown) [Example 421, N-[4-(2-{[4-(dimethylamino)butyl]amino}-5,6-dihydrobenzo[h]quinazolin-6-yl)phenyl]biphenyl-4-sulfonamide] | A (A = 80-100% inhibition) | A (A = 80-100% inhibition) | A (A = 80-100% inhibition) | A (A = 80-100% inhibition) | A (A = 80-100% inhibition) | A (A = 80-100% inhibition)
3 | Cc1ccc(S(=O)(=O)Nc2ccc(C3Cc4cnc(NCCCCN(C)C)nc4-c4ccccc43)cc2)c(C)c1 (stereo not shown) [Example 423, N-[4-(2-{[4-(dimethylamino)butyl]amino}-5,6-dihydrobenzo[h]quinazolin-6-yl)phenyl]-2,4-dimethylbenzenesulfonamide] | A (A = 80-100% inhibition) | A (A = 80-100% inhibition) | A (A = 80-100% inhibition) | A (A = 80-100% inhibition) | A (A = 80-100% inhibition) | A (A = 80-100% inhibition)
4 | CN(C)CCCCNc1ncc2c(n1)-c1ccccc1C(c1ccc(NS(=O)(=O)c3ccc(Br)s3)cc1)C2 (stereo not shown) [Example 427, 5-bromo-N-[4-(2-{[4-(dimethylamino)butyl]amino}-5,6-dihydrobenzo[h]quinazolin-6-yl)phenyl]thiophene-2-sulfonamide] | A (A = 80-100% inhibition) | A (A = 80-100% inhibition) | A (A = 80-100% inhibition) | A (A = 80-100% inhibition) | A (A = 80-100% inhibition) | B (B = 50-79% inhibition)
5 | CN(C)CCCCNc1ncc2c(n1)-c1ccccc1C(c1ccc(NS(=O)(=O)c3cccc(C(F)(F)F)c3)cc1)C2 (stereo not shown) [Example 430, N-[4-(2-{[4-(dimethylamino)butyl]amino}-5,6-dihydrobenzo[h]quinazolin-6-yl)phenyl]-3-(trifluoromethyl)benzenesulfonamide] | A (A = 80-100% inhibition) | A (A = 80-100% inhibition) | A (A = 80-100% inhibition) | A (A = 80-100% inhibition) | A (A = 80-100% inhibition) | A (A = 80-100% inhibition)
6 | Cc1cccc(Cl)c1S(=O)(=O)Nc1ccc(C2Cc3cnc(NCCCCN(C)C)nc3-c3ccccc32)cc1 (stereo not shown) [Example 431, 2-chloro-N-[4-(2-{[4-(dimethylamino)butyl]amino}-5,6-dihydrobenzo[h]quinazolin-6-yl)phenyl]-6-methylbenzenesulfonamide] | A (A = 80-100% inhibition) | A (A = 80-100% inhibition) | A (A = 80-100% inhibition) | A (A = 80-100% inhibition) | A (A = 80-100% inhibition) | B (B = 50-79% inhibition)
7 | CN(C)CCCCNc1ncc2c(n1)-c1ccccc1C(c1ccc(NS(=O)(=O)c3cccc4cccnc34)cc1)C2 (stereo not shown) [Example 434, N-[4-(2-{[4-(dimethylamino)butyl]amino}-5,6-dihydrobenzo[h]quinazolin-6-yl)phenyl]quinoline-8-sulfonamide] | A (A = 80-100% inhibition) | A (A = 80-100% inhibition) | A (A = 80-100% inhibition) | A (A = 80-100% inhibition) | A (A = 80-100% inhibition) | A (A = 80-100% inhibition)
8 | CN(C)CCCCNc1ncc2c(n1)-c1ccccc1C(c1ccc(NS(=O)(=O)c3ccc(C(C)(C)C)cc3)cc1)C2 (stereo not shown) [Example 435, 4-tert-butyl-N-[4-(2-{[4-(dimethylamino)butyl]amino}-5,6-dihydrobenzo[h]quinazolin-6-yl)phenyl]benzenesulfonamide] | A (A = 80-100% inhibition) | A (A = 80-100% inhibition) | A (A = 80-100% inhibition) | A (A = 80-100% inhibition) | A (A = 80-100% inhibition) | A (A = 80-100% inhibition)
9 | CN(C)CCCCNc1ncc2c(n1)-c1ccccc1C(c1ccc(NC(=O)c3ccccc3Br)cc1)C2 (stereo not shown) [Example 466, 2-bromo-N-[4-(2-{[4-(dimethylamino)butyl]amino}-5,6-dihydrobenzo[h]quinazolin-6-yl)phenyl]benzamide] | A (A = 80-100% inhibition) | A (A = 80-100% inhibition) | B (B = 50-79% inhibition) | A (A = 80-100% inhibition) | A (A = 80-100% inhibition) | B (B = 50-79% inhibition)
10 | Cc1cccc(C(=O)Nc2ccc(C3Cc4cnc(NCCCCN(C)C)nc4-c4ccccc43)cc2)c1 (stereo not shown) [Example 469, N-[4-(2-{[4-(dimethylamino)butyl]amino}-5,6-dihydrobenzo[h]quinazolin-6-yl)phenyl]-3-methylbenzamide] | A (A = 80-100% inhibition) | A (A = 80-100% inhibition) | A (A = 80-100% inhibition) | A (A = 80-100% inhibition) | A (A = 80-100% inhibition) | A (A = 80-100% inhibition)
11 | Cc1ccc(F)c(CNc2ccc(C3Cc4cnc(NCCCN5CCN(C)CC5)nc4-c4ccccc43)cc2)c1 (stereo not shown) [Example 570, 6-{4-[(2-fluoro-5-methylbenzyl)amino]phenyl}-N-[3-(4-methylpiperazin-1-yl)propyl]-5,6-dihydrobenzo[h]quinazolin-2-amine] | A (A = 80-100% inhibition) | A (A = 80-100% inhibition) | A (A = 80-100% inhibition) | A (A = 80-100% inhibition) | A (A = 80-100% inhibition) | –
12 | Cc1ccc(CNc2ccc(C3Cc4cnc(NCCCN5CCN(C)CC5)nc4-c4ccccc43)cc2)c(C)c1 (stereo not shown) [Example 571, 6-{4-[(2,4-dimethylbenzyl)amino]phenyl}-N-[3-(4-methylpiperazin-1-yl)propyl]-5,6-dihydrobenzo[h]quinazolin-2-amine] | A (A = 80-100% inhibition) | A (A = 80-100% inhibition) | A (A = 80-100% inhibition) | A (A = 80-100% inhibition) | A (A = 80-100% inhibition) | –
13 | CN1CCN(CCCNc2ncc3c(n2)-c2ccccc2C(c2ccc(NCc4ccc5c(c4)CCO5)cc2)C3)CC1 (stereo not shown) [Example 572, 6-{4-[(2,3-dihydro-1-benzofuran-5-ylmethyl)amino]phenyl}-N-[3-(4-methylpiperazin-1-yl)propyl]-5,6-dihydrobenzo[h]quinazolin-2-amine] | A (A = 80-100% inhibition) | A (A = 80-100% inhibition) | A (A = 80-100% inhibition) | A (A = 80-100% inhibition) | A (A = 80-100% inhibition) | –
14 | CN1CCN(CCCNc2ncc3c(n2)-c2ccccc2C(c2ccc(NCc4cccc5cc[nH]c45)cc2)C3)CC1 (stereo not shown) [Example 573, 6-{4-[(1H-indol-7-ylmethyl)amino]phenyl}-N-[3-(4-methylpiperazin-1-yl)propyl]-5,6-dihydrobenzo[h]quinazolin-2-amine] | A (A = 80-100% inhibition) | A (A = 80-100% inhibition) | A (A = 80-100% inhibition) | A (A = 80-100% inhibition) | A (A = 80-100% inhibition) | –
15 | CN1CCN(CCCNc2ncc3c(n2)-c2ccccc2C(c2ccc(NCc4ccccc4F)cc2)C3)CC1 (stereo not shown) [Example 574, 6-{4-[(2-fluorobenzyl)amino]phenyl}-N-[3-(4-methylpiperazin-1-yl)propyl]-5,6-dihydrobenzo[h]quinazolin-2-amine] | A (A = 80-100% inhibition) | A (A = 80-100% inhibition) | A (A = 80-100% inhibition) | A (A = 80-100% inhibition) | A (A = 80-100% inhibition) | –
